According to patent publication US8815852B2, “Carbamoyloxy arylalkan arylpiperazine analgesics” (SK Biopharmaceuticals Co., Ltd., priority 2007, dated 2014):
Where two headings read alike, the source gives them in different places.

How the values were obtained:
5-HT1A receptor = 5-HT1A receptor (Rattus norvegicus (Rat), UniProt P19327); assay: Binding to 5-HT1A receptor ([3H]-8-OH-DPAT, rat cortical membranes); design: species or system Sprague-Dawley (SD) rats; details: for inhibition at 1 µM: 1 h, read-out: 5-HT1A: Suppression; for IC50: 2 nM [3H]-8-OH-DPAT, read-out: 5-HT1A: IC50 (Concentration required to be 50% suppressed)
Procedure: Binding to 5-HT1A Receptor
6-week-old Sprague-Dawley (SD) rats were anesthetized in an ether container for 5 minutes, brains were separated from rats, and cortical regions were then separated from the brains of the rats. The cortical regions of the rats were put into a Tris-HCl buffer solution (50 mM, pH 7.4) and homogenized, and the homogenate was centrifuged twice at 4? at a rotary speed of 50,000 g to obtain a precipitate (membrane protein). The precipitate was put into a buffer solution, and homogenized, which was used later as a protein source. 2 nM [3H]-8-OH-DPAT was used as a radioactive isotope, and 10 uM serotonin was used to remove non-specific bindings. 25 ul of the compound, 100 ul of an aqueous radioactive isotope solution, and 100 ul of the protein source were put together, and kept at 25° C. for 1 hour. The resulting mixture was filtered with a membrane filter in a 96-well harvester when the 96-well plate reaction was completed. The competitivity of the compound to [3H]-8-OH-DPAT was determined by taking the membrane filter and measuring the radioactivity of the membrane filter in a scintillation counter, and an IC50 value was determined by measuring the increasing concentration of the compound. The specific reaction of the compound accounted for 90% or more. The general experiments were carried out according to the method by Middlemiss et al. (1984, Eur. J. Pharmacol.).

male ICR mouse [1] = assay: Acetic acid-induced writhing test in mouse; type: in vivo; details: Mus musculus; for inhibition in vivo at 10 mg/kg: at 10 po (method: 10 mg/kg oral, 1 hour before acetic acid), read-out: AA Writhing: Suppression ratio of Pain response; for ED50: unit not given (method doses in mg/kg), read-out: AA Writhing: ED50
How it was run: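 Male ICR mice (30 to 35 g) dosed orally at 10 mg/kg, then given 0.8% acetic acid i.p. 1 h later. Writhes counted for 10 min and expressed as % suppression against vehicle. ED50 derived by linear regression over at least three doses.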

5-HT2A receptor = 5-HT2A receptor (Rattus norvegicus (Rat), UniProt P14842); assay: Binding to 5-HT2A receptor ([3H]-Ketanserin, rat cortical membranes); design: species or system Sprague-Dawley (SD) rats; details: for inhibition at 1 µM: 1 h, read-out: 5-HT2A: Suppression; for IC50: 0.5 nM [3H]-Ketanserin, read-out: 5-HT2A: IC50 (Concentration required to be 50% suppressed)
Procedure: Binding to 5-HT2A Receptor
6-week-old Sprague-Dawley (SD) rats were anesthetized in an ether container for 5 minutes, brains were separated from rats, and cortical regions were then separated from the brains of the rats. The cortical regions of the rats were put into a Tris-HCl buffer solution (50 mM, pH 7.7) and homogenized, and the homogenate was centrifuged twice at 4° C. at a rotary speed of 50,000 g to obtain a precipitate (membrane protein). The precipitate was put into a buffer solution, and homogenized, which was used later as a protein source. 0.5 nM [3H]-Ketanserin was used as a radioactive isotope, and 10 uM serotonin was used to remove non-specific bindings. 25 ul of the compound, 100 ul of an aqueous radioactive isotope solution, and 100 ul of the protein source were put together, and kept at 25° C. for 1 hour. The resulting mixture was filtered with a membrane filter in a 96-well harvester when the 96-well plate reaction was completed. The competitivity of the compound to [3H]-Ketanserin was determined by taking the membrane filter and measuring the radioactivity in a scintillation counter, and an IC50 value was determined by measuring the increasing concentration of the compound. The specific reaction of the compound accounted for 90% or more. The general experiments were carried out according to the method by Leysen et al. (1982, Eur. J. Pharmacol).

male ICR mouse [2] = assay: Formalin test - late phase in mouse; type: in vivo; details: po, unit inferred
Procedure: 3. Formalin Test—Late Phase in Mouse
A formalin test is another model for measuring an analgesic effect of drugs. […] These pain behaviors have a biphasic pattern, and therefore they are divided into an early-phase behavior within […] after the formalin administration; and a late-phase behavior up to 10 to 60 minutes. The medicinal effect observed in the formalin test-late phase means an analgesic effect of the test material in the inflammatory pain model, and also becomes a measure that may predict the medicinal effects in the neuropathic pain model (Vissers K et. al, 2003). A test material was orally administered to a male ICR mouse weighing 30 to 35 g. After 1 hour of the oral administration, 20 μl of a 2.5% formalin solution was subcutaneously injected into the planta surface of a mouse's hindlimb to induce pain. […] The analgesic effect of the test material is represented by the ‘suppression ratio of pain response’ {[(Pain response time of Vehicle-administered group−Pain response time of Test material-administered group)/(Pain response time of Vehicle-administered group)]×100%}, or ‘50% of Effective amount (ED50; an amount of a test material that is required to suppress 50% of pain behaviors) of Test material’. The ED50 (median effective dose) was determined by calculating the suppression ratio of pain response in at least three doses of test materials and subjecting to the linear regression.

5-HT2A receptor, sequence (P14842 whole entry): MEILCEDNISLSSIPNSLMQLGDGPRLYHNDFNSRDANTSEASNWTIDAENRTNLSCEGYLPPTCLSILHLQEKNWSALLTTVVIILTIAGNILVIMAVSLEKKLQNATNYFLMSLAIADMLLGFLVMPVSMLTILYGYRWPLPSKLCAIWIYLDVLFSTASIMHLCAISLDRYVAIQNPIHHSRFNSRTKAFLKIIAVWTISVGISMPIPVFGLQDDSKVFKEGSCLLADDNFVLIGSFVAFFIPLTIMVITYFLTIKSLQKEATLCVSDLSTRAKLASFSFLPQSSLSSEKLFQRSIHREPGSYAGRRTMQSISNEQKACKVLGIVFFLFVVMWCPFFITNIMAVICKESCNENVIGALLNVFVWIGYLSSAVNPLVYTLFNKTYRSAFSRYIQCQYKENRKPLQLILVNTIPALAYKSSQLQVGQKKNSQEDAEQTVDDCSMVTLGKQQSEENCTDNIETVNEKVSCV
5-HT1A receptor, sequence (P19327 whole entry): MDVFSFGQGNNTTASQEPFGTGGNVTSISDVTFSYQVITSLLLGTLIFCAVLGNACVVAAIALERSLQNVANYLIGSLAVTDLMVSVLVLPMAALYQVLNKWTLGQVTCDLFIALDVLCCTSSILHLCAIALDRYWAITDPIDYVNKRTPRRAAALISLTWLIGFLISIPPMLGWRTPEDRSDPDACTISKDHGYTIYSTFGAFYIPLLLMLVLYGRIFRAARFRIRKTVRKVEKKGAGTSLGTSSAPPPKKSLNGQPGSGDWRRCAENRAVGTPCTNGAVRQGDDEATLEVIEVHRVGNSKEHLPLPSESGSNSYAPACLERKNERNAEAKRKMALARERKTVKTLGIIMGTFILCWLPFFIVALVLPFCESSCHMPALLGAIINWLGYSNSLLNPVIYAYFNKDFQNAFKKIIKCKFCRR

SMILES | inhibition at 1 µM (5-HT1A receptor) | inhibition in vivo at 10 mg/kg (male ICR mouse [1]; po, 1 h) | inhibition at 1 µM (5-HT2A receptor) | IC50 (5-HT1A receptor) | inhibition in vivo at 10 mg/kg (male ICR mouse [1]) | IC50 (5-HT2A receptor) | ED50 (male ICR mouse [2]) | ED50 (male ICR mouse [1]; po) | ED50 (male ICR mouse [1]; ip)
NC(=O)OC(CCN1CCN(c2ccc([N+](=O)[O-])cc2)CC1)c1ccc(F)cc1 (centres unmarked) [Example 79, Carbamic acid 1-(4-fluoro-phenyl)-3-[4-(4-nitro-phenyl)-piperazin-1-yl]-propyl ester] | 29.6% | 70% | 29.6% |  |  |  |  |  | 
COc1ccc(C(CCN2CCN(c3ccccc3)CC2)OC(N)=O)cc1 (centres unmarked) [Example 8, Carbamic acid 1-(4-methoxy-phenyl)-3-(4-phenyl-piperazin-1-yl)-propyl ester] | 67.7% | 43% | 82% |  |  |  |  |  | 
NC(=O)OC(CCN1CCN(c2ccc(F)cc2)CC1)c1ccccc1 (centres unmarked) [Example 21, Carbamic acid 3-[4-(4-fluoro-phenyl)-piperazin-1-yl]-1-phenyl-propyl ester] |  |  |  | 1050 nM | 88% | 64.5 nM |  |  | 
Cc1ccccc1N1CCN(CCC(OC(N)=O)c2ccc(F)cc2)CC1 (centres unmarked) [Example 80, Carbamic acid 1-(4-fluoro-phenyl)-3-(4-o-tolyl-piperazin-1-yl)-propyl ester] | 75.3% | 29% | 76.8% |  |  |  |  |  | 
NC(=O)OC(CCN1CCN(c2ccccc2)CC1)c1ccc(F)cc1 (centres unmarked) [Example 6, Carbamic acid 1-(4-fluoro-phenyl)-3-(4-phenyl-piperazin-1-yl)-propyl ester] | 65.5% |  | 84.7% |  |  |  | 4.45 mg/kg | 2.79 mg/kg | 
NC(=O)OC(CCN1CCN(c2ccc(F)cc2)CC1)c1ccc(F)cc1 (centres unmarked) [Example 81, Carbamic acid 1-(4-fluoro-phenyl)-3-[4-(4-fluoro-phenyl)-piperazin-1-yl]-propyl ester] | 60.9% | 52% | 93.9% |  |  |  |  |  | 
NC(=O)OC(CCN1CCN(c2ccccc2)CC1)c1ccccc1 (centres unmarked) [Example 1, Carbamic acid 1-phenyl-3-(4-phenyl-piperazin-1-yl)-propyl ester] |  |  |  | 434 nM |  | 139 nM | 8.43 mg/kg | 6.31 mg/kg | 
COc1ccccc1N1CCN(CCC(OC(N)=O)c2ccccc2)CC1 (centres unmarked) [Example 27, Carbamic acid 3-[4-(2-methoxy-phenyl)-piperazin-1-yl]-1-phenyl-propyl ester] |  |  |  | 97.6 nM |  | 164 nM |  | 7.8 mg/kg | 
COc1ccc(N2CCN(CC[C@@H](OC(N)=O)c3ccccc3)CC2)cc1 [Example 102, (R)-carbamic acid 3-[4-(4-methoxy-phenyl)-piperazin-1-yl]-1-phenyl-propyl ester] |  |  |  | 4310 nM |  | 2780 nM | 4.77 mg/kg | 3.15 mg/kg | 
NC(=O)OC(CCN1CCN(c2ccccc2)CC1)c1ccc([N+](=O)[O-])cc1 (centres unmarked) [Example 9, Carbamic acid 1-(4-nitro-phenyl)-3-(4-phenyl-piperazin-1-yl)-propyl ester] | 81.4% | 91% | 88% |  |  |  | 2.39 mg/kg |  | 
COc1ccc(N2CCN(CCC(OC(N)=O)c3ccccc3)CC2)cc1 (centres unmarked) [Example 20, Carbamic acid 3-[4-(4-methoxy-phenyl)-piperazin-1-yl]-1-phenyl-propyl ester] |  |  |  | 19800 nM |  | 5850 nM | 5.77 mg/kg | 3.12 mg/kg | 
COc1ccccc1N1CCN(CCC(OC(N)=O)c2ccc(F)cc2)CC1 (centres unmarked) [Example 78, Carbamic acid 1-(4-fluoro-phenyl)-3-[4-(2-methoxy-phenyl)-piperazin-1-yl]-propyl ester] | 79% | 34% | 71.5% |  |  |  |  |  | 
NC(=O)OC(CCN1CCN(c2ccccc2F)CC1)c1ccccc1 (centres unmarked) [Example 41, Carbamic acid 3-[4-(2-fluoro-phenyl)-piperazin-1-yl]-1-phenyl-propyl ester] |  |  |  | 160 nM |  | 110 nM | 33.2 mg/kg |  | 0.34 mg/kg
COc1ccc(N2CCN(CC[C@H](OC(N)=O)c3ccccc3)CC2)cc1 [Example 106, (S)-carbamic acid 3-[4-(4-methoxy-phenyl)-piperazin-1-yl]-1-phenyl-propyl ester] |  |  |  |  |  |  | 12.5 mg/kg |  | 1.43 mg/kg
NC(=O)OC(CCN1CCN(c2cccc(Cl)c2)CC1)c1ccccc1 (centres unmarked) [Example 36, Carbamic acid 3-[4-(3-chloro-phenyl)-piperazin-1-yl]-1-phenyl-propyl ester] |  |  |  | 93.8 nM |  | 61.5 nM |  | 17.5 mg/kg | 
NC(=O)OC(CCN1CCN(c2ccccc2)CC1)c1cccc(Cl)c1 (centres unmarked) [Example 7, Carbamic acid 1-(3-chloro-phenyl)-3-(4-phenyl-piperazin-1-yl)-propyl ester] | 76.4% | 59% | 93.7% |  |  |  |  |  | 
NC(=O)OC(CCN1CCN(c2ccccc2)CC1)c1cccc([N+](=O)[O-])c1 (centres unmarked) [Example 4, Carbamic acid 1-(3-nitro-phenyl)-3-(4-phenyl-piperazin-1-yl)-propyl ester] | 74.6% | 48% | 86.4% |  |  |  |  |  | 
NC(=O)OC(CCN1CCN(c2ccc([N+](=O)[O-])cc2)CC1)c1ccccc1 (centres unmarked) [Example 16, Carbamic acid 1-phenyl-3-[4-(4-nitro-phenyl)-piperazin-1-yl]-propyl ester] |  |  |  | 6570 nM |  | 2050 nM | 11.6 mg/kg |  | 2.92 mg/kg
Cc1ccccc1N1CCN(CCC(OC(N)=O)c2ccccc2)CC1 (centres unmarked) [Example 37, Carbamic acid 1-phenyl-3-(4-o-tolylpiperazin-1-yl)-propyl ester] |  |  |  |  |  |  | 42.4 mg/kg |  | 1.96 mg/kg
NC(=O)OC(CCN1CCN(c2ccccc2)CC1)c1ccc(Cl)cc1 (centres unmarked) [Example 2, Carbamic acid 1-(4-chloro-phenyl)-3-(4-phenyl-piperazin-1-yl)-propyl ester] | 64.6% |  | 84.6% |  |  |  | 2.2 mg/kg | 2.14 mg/kg | 
NC(=O)OC(CCN1CCN(C(c2ccc(F)cc2)c2ccc(F)cc2)CC1)c1ccccc1 (centres unmarked) [Example 93, Carbamic acid 3-{4-[bis-(4-fluoro-phenyl)-methyl]-piperazin-1-yl}-1-phenyl-propyl ester] |  |  |  | > 10000 nM |  | 940 nM |  |  | 
CC(C)(C)c1ccc(C(CCN2CCN(c3ccccc3)CC2)OC(N)=O)cc1 (centres unmarked) [Example 5, Carbamic acid 1-(4-tert-butyl-phenyl)-3-(4-phenyl-piperazin-1-yl)-propyl ester] | 44.4% | 62% | 98.8% |  |  |  |  |  | 
